From patent EP0816848A1, “Method for comparative screening of substances with pharmacological activity” (BOEHRINGER INGELHEIM INTERNATIONAL GmbH, priority 1996, dated 1998)

How the values were obtained:
H-ras^Val12 [1] = experiment: Detection of inhibition of Ras farnesylation (immunoprecipitation, SDS gel, Western blot) in FHRV12cc21 cells; assay type: cell-based, mouse; conditions: 5 µM, 48 h, 1% IL-3
Protocol: Nachweis der H-ras^Val12 Expression FHRV12cc21 und untransfizierte FDC-P1 Zellen wurden in IMDM Medium mit 10% FCS und 1% IL-3 gezüchtet. Zum Nachweis der Hemmung der posttranslationalen Modifikation von H-ras^Val12 durch Farnesylierung wurden die Zellen für 48 Stunden mit 5 µM des Protein-Farnesyltransferase-Inhibitors L-739.749 (Kohl et al., 1994) inkubiert. Die Zellen wurden mit PBS gewaschen und in PBSTDS (1% Triton X-100, 0.5% Natriumdesoxycholat, 0.1% Natriumdodecylsulfat in PBS) 5 min bei 4°C lysiert. Die Zellysate wurden durch Zentrifugation (20 min 14.000x g, 4°C) geklärt. Ras Proteine wurden durch Zusatz von 1 µg monoklonalen Ratten Antikörper Y13-238 (Oncogene Science) und Protein-G Plus / Protein-A Agarose (Oncogene Science) über Nacht bei 4°C immunpräzipitiert. Die Präzipitate wurden zweimal mit PBSTDS Puffer gewaschen und anschließend in SDS-Probenpuffer mit 3% β-Mercaptoethanol ausgenommen. Die Proteine wurden in einem 20%igen SDS-Polyacrylamidgel aufgetrennt, auf eine Immobilon-Membran (Millipore) transferiert und nach Absättigen der Membran mit 10% FCS, 1% Rinderserumalbumin, 1% Tween-20 in PBS, durch aufeinanderfolgende Inkubation mit einem Ras^Val12 spezifischen monoklonalen Antikörper (pan-Ras^Val12, Oncogene Science) und einem sekundären anti-Maus-IgG - Alkalische Phosphatase-Konjugat durch Färbereaktion mit NBT und BCIP (Promega) nachgewiesen. […]

H-ras^Val12 [2] = experiment: Inhibition of IL-3 independent growth of H-ras^Val12 transfected FDC-P1 cells (FHRV12cc21), viability by MTS assay; assay type: cell-based, mouse; conditions: IL-3 free medium, relative absorption (Fig. 1)
Protocol: (§1) FDC-P1 Zellen (Dexter et al., 1980) wurden in IMDM Medium (BioWhittaker), versetzt mit 10% hitzeinaktiviertem fötalem Kälberserum (FCS), 2 mM Glutamin, 50 µM β-Mercaptoäthanol und 1% IL-3 angesetzt und bei 37°C in 5% CO2 inkubiert. 10^7 Zellen pro Transfektion wurden 5 min bei 1200 UpM bei Raumtemperatur abzentrifugiert (Heraeus Minifuge), einmal mit serumfreiem RPMI-1640 Medium gewaschen, und in 1 ml serumfreiem Medium suspendiert. 800 µl dieser Zellsuspension wurden in einer Elektroporationsküvette mit 20 µg Plasmid pGDV12ras gemischt und mit einem einzelnen Stromstoß von 280 V, 980 µF und 1000 ms elektroporiert (Progenetor II, Hoefer Instruments). Die Zellen wurden in 10 ml Kulturmedium mit 1% IL-3 verdünnt und bei 37°C, 5% CO2 inkubiert. Zwei Tage nach der Transfektion wurden die Zellen mit frischem Medium 3-fach verdünnt und 250 µg/ml G-418 zur Selektion auf Neomycin-resistenz zugesetzt. An den darauffolgenden Tagen wurde die G-418 Konzentration auf 500, 750 und 1000 µg/ml erhöht. Tote Zellen wurden mittels Zentrifugation durch einen Ficoll-Gradienten entfernt. Dazu wurden die Zellen zuerst mittels Zentrifugation (5 min, 1200 UpM) in einem geringen Volumen aufkonzentriert und in einem Zentrifugenröhrchen über Ficoll-Paque (Pharmacia) geschichtet. […]

H-ras^Val12 [3] = experiment: Inhibition of IL-3 independent growth of H-ras^Val12 transfected FDC-P1 cells (FHRV12cc21), DNA synthesis by [3H]thymidine incorporation; assay type: cell-based, mouse; conditions: IL-3 free medium (Fig. 2)
Protocol: as §1

EGF-Rezeptor = EGF-Rezeptor (Homo sapiens, UniProt P00533); experiment: c-fos promoter luciferase reporter assay in KB-B4 cells, EGF-induced; assay type: cell-based; conditions: 1 ng/ml EGF, 6 h (Fig. 6)
Protocol: Die humane epidermoide Karzinomzellinie KB (ATCC CCL 17), wurde mit Plasmid pBHfosluci folgendermaßen transfiziert: Etwa 1x10^6 Zellen pro 10 cm Platte wurden in DMEM-Medium (Bio-Whittaker) in Anwesenheit von 10% hitzeinaktiviertem fötalem Kälberserum in mehrere Platten ausgesät. Am nächsten Tag wurde 20 µg Plasmid-DNA mit Calcium-Phosphat präzipitiert und das Präzipitat langsam auf die Zellen getropft. Nach 4 Stunden wurden die Zellen für 2 min in 15% Glycerin inkubiert, gewaschen und dann in DMEM-Medium in Anwesenheit von 10% hitzeinaktiviertem fötalem Kälberserum und Standardantibiotika bei 37°C unter 5% CO2 gehalten. Die Zellen wurden durch Zugabe von 0.5 g/l G418 (GIBCO BRL) selektioniert. Einzelne G418-resistente Zellklone wurden hochgezogen und auf Induzierbarkeit der Luciferaseexpression durch Zugabe von HGF (Sigma) getestet. Ungefähr 10000 Zellen jedes Klons wurden in 6facher Ausfertigung in 200 µl pro Vertiefung in einer lichtundurchlässigen, gewebekulturbeschichteten Mikrotiterplatte mit 96 Vertiefungen (Microlite™, Dynatech Laboratories) ausgesät und über Nacht bei 37°C inkubiert. Jeweils drei Ansätze wurden mit 20 ng/ml HGF behandelt und weitere 6 h inkubiert. Anschließend wurde das Medium entfernt und die Zellen zweimal mit PBS gewaschen. […]

Ras = target: T1, Ras (Homo sapiens, UniProt P01112, G12V); experiment: Proliferation assay (MTS) dose-response, Ras test cell line ("FHR V12"); assay type: cell-based; conditions: Ras test cell line "FHR V12" (Fig. 7)
T1 construct: expressed in transfected cells
Protocol: as §1

HER-2 = target: T2, HER-2 (Homo sapiens, UniProt P04626, V659E); experiment: Proliferation assay (MTS) dose-response, HER-2 test cell line; assay type: cell-based; conditions: HER-2 test cell line (Fig. 7)
T2 construct: enthält nun die komplette kodierende Region der mutierten, konstitutiv aktiven Form HER2(V659E); expressed in transfected cells
Protocol: FDC-P1-Zellen (Dexter et al., 1980), die IL-3-abhängig wachsen, wurden mit Plasmid pAHygCMVHer2(V659E) folgendermaßen transfiziert: Etwa 1x10^7 Zellen wurden in IMDM-Medium (Bio-Whittaker) mit 10 µg Plasmid DNA gemischt und mit einem Elektroporator (Hoefer, Progenetor II) bei 980 µF, 280 V für 1000 ms elektroporiert. Die Zellen wurden in IMDM-Medium in Anwesenheit von 10% hitzeinaktiviertem fötalem Kälberserum, 50 µM β-Mercaptoethanol, Standardantibiotika, und 1% IL-3 bei 37°C unter 5% CO2 gehalten und durch Zugabe von 300 mg/l Hygromycin B (Boehringer Mannheim) selektioniert. Nach erfolgreicher Selektion wurden die Zellen langsam von IL-3 entwöhnt, der IL-3-unabhängig wachsende Zellpool anschließend in Methocel subkloniert. Einzelne Klone wurden gepickt und in Medium ohne IL-3 hochgezogen.
Einzelne Klone wurden in einem Fluoreszenz-aktivierten Zell-Sorter (Becton-Dickinson, FACSort) auf Oberflächenexpression von HER2 getestet, dabei wurde als primärer Antikörper ein gegen die extrazelluläre Domäne von HER2 gerichteter Maus-Antikörper verwendet (Oncogene Science, c-neu (Ab-2)), und als sekundärer Antikörper ein Fluorescein Isothiocyanat (FITC)-konjugierter anti-Maus IgG Antikörper (Dianova, Hamburg). Der Subklon mit der besten Oberflächenexpression von HER2(V659E), genannt FDCP/Her2-C42#16, wurde für das Screenen verwendet. […]

HGF-R = experiment: Proliferation assay (MTS) dose-response, HGF-R test cell line ("TPRmet"); assay type: cell-based, human; conditions: HGF-R test cell line "TPRmet" (Fig. 7)

EGF-Rezeptor, sequence (P00533 25-1210): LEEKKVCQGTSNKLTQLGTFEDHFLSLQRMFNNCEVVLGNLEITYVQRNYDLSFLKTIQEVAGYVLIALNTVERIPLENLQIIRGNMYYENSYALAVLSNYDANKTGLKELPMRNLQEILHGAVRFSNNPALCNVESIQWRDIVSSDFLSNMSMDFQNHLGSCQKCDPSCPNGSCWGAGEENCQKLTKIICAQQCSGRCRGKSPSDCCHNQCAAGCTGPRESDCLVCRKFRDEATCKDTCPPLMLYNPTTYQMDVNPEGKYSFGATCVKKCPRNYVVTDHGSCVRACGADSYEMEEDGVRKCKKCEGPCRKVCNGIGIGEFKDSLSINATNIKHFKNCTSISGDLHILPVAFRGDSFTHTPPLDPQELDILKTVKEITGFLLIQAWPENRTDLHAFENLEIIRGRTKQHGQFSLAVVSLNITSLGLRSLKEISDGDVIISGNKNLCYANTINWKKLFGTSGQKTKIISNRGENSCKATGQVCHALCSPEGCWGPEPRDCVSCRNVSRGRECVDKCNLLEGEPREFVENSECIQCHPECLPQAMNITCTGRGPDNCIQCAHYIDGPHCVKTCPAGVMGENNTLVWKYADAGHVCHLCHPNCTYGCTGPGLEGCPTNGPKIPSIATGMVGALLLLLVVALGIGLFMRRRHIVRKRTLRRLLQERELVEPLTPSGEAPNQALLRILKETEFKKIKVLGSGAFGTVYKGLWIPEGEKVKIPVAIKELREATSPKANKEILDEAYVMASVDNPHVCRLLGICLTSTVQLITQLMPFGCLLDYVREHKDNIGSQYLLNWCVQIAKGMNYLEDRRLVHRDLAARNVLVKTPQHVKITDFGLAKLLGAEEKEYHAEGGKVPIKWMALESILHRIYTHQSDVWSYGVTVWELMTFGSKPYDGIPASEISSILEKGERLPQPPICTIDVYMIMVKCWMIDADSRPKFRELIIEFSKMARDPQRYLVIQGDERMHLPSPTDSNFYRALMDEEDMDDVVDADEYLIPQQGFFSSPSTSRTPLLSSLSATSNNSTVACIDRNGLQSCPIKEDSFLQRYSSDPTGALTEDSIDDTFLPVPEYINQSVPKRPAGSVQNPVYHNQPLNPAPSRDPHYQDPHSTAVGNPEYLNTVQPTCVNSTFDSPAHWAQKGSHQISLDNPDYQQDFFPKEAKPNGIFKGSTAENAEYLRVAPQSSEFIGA
T2 sequence (P04626 23-1255 V659E): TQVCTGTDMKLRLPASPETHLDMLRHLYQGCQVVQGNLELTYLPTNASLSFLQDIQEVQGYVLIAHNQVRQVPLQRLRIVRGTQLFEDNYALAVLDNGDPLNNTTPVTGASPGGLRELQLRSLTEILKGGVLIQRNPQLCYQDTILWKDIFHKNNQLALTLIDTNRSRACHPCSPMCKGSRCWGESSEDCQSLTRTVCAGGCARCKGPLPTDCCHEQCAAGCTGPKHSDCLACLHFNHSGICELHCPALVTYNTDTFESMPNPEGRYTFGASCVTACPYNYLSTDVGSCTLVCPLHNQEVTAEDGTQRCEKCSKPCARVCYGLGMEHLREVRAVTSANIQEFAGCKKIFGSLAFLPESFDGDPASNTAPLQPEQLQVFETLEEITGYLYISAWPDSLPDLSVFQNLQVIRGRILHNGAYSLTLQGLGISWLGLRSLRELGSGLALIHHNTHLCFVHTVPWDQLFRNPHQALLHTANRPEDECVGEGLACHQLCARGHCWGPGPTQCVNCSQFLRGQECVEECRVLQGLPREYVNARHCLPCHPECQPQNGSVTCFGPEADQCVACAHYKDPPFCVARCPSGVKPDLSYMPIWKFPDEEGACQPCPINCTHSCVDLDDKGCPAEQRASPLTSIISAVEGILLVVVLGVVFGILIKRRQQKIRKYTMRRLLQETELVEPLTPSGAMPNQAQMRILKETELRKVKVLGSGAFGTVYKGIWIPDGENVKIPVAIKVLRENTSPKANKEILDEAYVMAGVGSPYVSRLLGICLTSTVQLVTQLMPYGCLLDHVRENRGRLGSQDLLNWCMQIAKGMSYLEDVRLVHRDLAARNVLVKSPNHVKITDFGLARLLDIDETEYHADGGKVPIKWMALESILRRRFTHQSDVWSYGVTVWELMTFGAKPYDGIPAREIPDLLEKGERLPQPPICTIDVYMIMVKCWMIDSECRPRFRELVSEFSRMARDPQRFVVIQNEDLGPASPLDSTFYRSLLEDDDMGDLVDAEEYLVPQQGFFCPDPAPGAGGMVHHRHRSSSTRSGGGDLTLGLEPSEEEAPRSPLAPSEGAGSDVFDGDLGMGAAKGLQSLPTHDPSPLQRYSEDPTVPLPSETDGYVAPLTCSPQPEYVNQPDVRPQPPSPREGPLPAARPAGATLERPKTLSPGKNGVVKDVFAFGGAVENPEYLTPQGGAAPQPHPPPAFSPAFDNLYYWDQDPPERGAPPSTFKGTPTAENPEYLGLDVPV
T1 sequence (P01112 1-186 G12V): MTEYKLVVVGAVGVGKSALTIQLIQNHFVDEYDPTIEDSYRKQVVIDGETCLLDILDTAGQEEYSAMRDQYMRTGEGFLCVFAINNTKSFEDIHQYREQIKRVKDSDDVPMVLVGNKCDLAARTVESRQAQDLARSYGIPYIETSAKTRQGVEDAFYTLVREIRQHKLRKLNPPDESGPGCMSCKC

CC[C@H](C)[C@@H](CO[C@@H](Cc1ccccc1)C(=O)N[C@@H](CCS(C)(=O)=O)C(=O)OC)NC[C@@H](N)CS [L-739.749, 2(S)-{2(S)-[2(R)-Amino-3-mercapto]propylamino-3(S)-methyl}pentyloxy-3-phenylpropionylmethioninsulfonmethyl ester]
Ras-Protein in der unmodifizierten (nicht farnesylierten) Form (H-ras^Val12 [1]): > 50%
Hemmung der H-ras^Val12 abhängigen Proliferation (Viabilität) (H-ras^Val12 [2]): Hemmung der H-ras^Val12 abhängigen Proliferation (Viabilität)
Hemmung der H-ras^Val12 abhängigen Proliferation (DNA-Synthese) (H-ras^Val12 [3]): Hemmung der H-ras^Val12 abhängigen Proliferation (DNA-Synthese)

COc1cc2ncnc(Nc3cccc(C)c3)c2cc1OC [6,7-Dimethoxy-4-(3-methylphenylamino)chinazolin]
Inhibierung der Luciferase-Induktion durch EGF (EGF-Rezeptor): inhibitorische Wirkung

Clc1cccc(Nc2ncnc3cnc(NC4CC4)nc23)c1 [4-[(3-Chlorphenyl)amino]-6-(cyclopropylamino)-pyrimido-[5,4-d]pyrimidin]
Konzentration, bei der Effekte auf die Proliferation der Zellen zu messen sind, relative to IC50 on the EGF-dependent cell line (Ras): ≥ 100 fach
Konzentration, bei der Effekte auf die Proliferation der Zellen zu messen sind, relative to IC50 on the EGF-dependent cell line (HER-2): ≥ 100 fach
Konzentration, bei der Effekte auf die Proliferation der Zellen zu messen sind, relative to IC50 on the EGF-dependent cell line (HGF-R): ≥ 100 fach
